Measurements reported in US9757350B2, “Small molecule inhibitors of replication protein A that also act synergistically with cisplatin” (Indiana University Research and Technology Corp., priority 2010, dated 2017).
Entries after “also recorded” stand apart in the source; their conditions may differ. Like-named read-outs stand apart in the source and are kept apart here.

Assays:
[1] = target: T1, full-length heterotrimeric RPA (Homo sapiens, UniProt P27694); experiment: EMSA in vitro DNA binding assay, full-length heterotrimeric RPA; conditions: ssDNA substrate
T1 construct: Human full-length, un-tagged heterotrimeric RPA (RPA) was purified as previously describe; made in house
T1 sequence (P27694 whole entry): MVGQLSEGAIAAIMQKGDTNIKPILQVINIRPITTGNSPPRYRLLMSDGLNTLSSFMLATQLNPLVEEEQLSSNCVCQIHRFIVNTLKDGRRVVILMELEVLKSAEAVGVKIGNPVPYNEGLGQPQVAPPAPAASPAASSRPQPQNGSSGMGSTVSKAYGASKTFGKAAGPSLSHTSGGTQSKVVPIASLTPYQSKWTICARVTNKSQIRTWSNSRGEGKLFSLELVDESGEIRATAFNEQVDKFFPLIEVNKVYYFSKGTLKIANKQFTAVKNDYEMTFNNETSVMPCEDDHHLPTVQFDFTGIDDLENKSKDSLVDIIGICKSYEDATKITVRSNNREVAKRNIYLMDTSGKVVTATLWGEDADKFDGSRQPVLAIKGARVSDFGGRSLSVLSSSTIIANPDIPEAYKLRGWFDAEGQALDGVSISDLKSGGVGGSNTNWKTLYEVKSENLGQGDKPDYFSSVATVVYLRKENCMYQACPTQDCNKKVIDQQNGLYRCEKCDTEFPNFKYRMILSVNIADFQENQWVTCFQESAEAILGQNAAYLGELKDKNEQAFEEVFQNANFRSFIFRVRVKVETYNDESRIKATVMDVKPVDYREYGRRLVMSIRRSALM
T1 sequence (P15927 whole entry partner): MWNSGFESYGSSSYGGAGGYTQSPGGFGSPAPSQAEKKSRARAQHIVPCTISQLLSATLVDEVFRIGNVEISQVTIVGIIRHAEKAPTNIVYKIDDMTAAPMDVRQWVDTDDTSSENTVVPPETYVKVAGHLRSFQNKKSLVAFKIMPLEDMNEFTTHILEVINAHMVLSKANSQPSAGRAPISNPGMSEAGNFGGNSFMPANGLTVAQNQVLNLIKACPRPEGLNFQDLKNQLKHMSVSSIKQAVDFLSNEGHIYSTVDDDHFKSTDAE
T1 sequence (P35244 whole entry partner): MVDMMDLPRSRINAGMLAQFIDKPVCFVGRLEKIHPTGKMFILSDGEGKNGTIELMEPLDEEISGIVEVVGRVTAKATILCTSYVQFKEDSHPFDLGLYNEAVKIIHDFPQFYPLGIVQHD
Procedure: RPA. Human full-length, un-tagged heterotrimeric RPA (RPA) was purified as previously describe.
RPA and DBD-A/B Binding. EMSAs were performed as previously described (22) using a 30-base purine rich ssDNA substrate (3Pc3). Briefly, reactions contained 12.5 nM 5′-[^32P]-labeled 3Pc3 ssDNA and the indicated concentrations of RPA or DBD-A/B. Protein was pre-incubated with the indicated concentration of SMI for 30 minutes at 37° C. DNA was then added and reactions incubated for an additional 5 minutes at room temperature in a final reaction volume of 40 μL. Reactions were then resolved on a 6% native polyacrylamide gel and electrophoresed at 170 volts for 1 hour. Gels were dried and quantified via phosphorimager analysis and ImageQuant software (Molecular Dynamics).

[2] = target: T2, RPA DBD-A/B (Homo sapiens, UniProt P27694); experiment: EMSA DNA binding assay, RPA DBD-A/B construct
T2 construct: made in house; host or cells: E. coli BL21(DE3)
T2 sequence (P27694 181-422 limits assumed): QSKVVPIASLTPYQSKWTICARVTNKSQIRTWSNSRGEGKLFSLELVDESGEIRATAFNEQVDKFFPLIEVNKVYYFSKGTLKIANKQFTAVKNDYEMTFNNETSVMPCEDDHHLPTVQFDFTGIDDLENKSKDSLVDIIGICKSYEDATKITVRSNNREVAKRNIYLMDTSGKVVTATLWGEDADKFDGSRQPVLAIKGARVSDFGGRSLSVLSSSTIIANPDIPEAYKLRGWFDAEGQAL
Procedure: DBD-A/B. The sequence encoding the RPA p70 DNA binding domains A and B were subcloned from the hrRPA plasmid (provided by Dr. Marc Wold, University of Iowa) into the pET15b (Novagen) vector and the protein was expressed in BL21(DE3) cells (Stratagene) as previously described. Briefly, cells were grown to an OD600 of 0.8, induced with 0.5 mM isopropyl-1-thio-β-D-galactopyranoside (IPTG) at 37° C. for 2-3 hours. Small scale DBD-A/B preparations were obtained from 1 L cultures and following induction, cells were harvested by centrifugation at 700×g for 30 minutes at 4° C. The pellets were suspended in Buffer A (20 mM Tris, pH 7.5, 10% glycerol, 500 mM NaCl, 10 mM β-mercaptoethanol (BME) and 1 μg/mL phenylmethanesulfonylfluoride (PMSF), leupeptin and pepstatin) at 1 mL/gram of cells. The cells were lysed by sonication and insoluble material sedimented at 15,000×g for 30 minutes at 4° C. The supernatant was then loaded onto a 10 mL phosphocellulose column, equilibrated with Buffer A, and the flow-through material collected. Imidazole was added to 5 mM to the flow through which was then loaded onto a 2 mL nickel-NTA-agarose column. The column was then washed with Buffer A containing 50 mM imidazole after which protein was eluted from the column using a gradient from 50-500 mM imidazole. Fractions were analyzed for protein content using Bradford and SDS-PAGE analysis in addition to assessment of DNA binding activity as determined by anisotropy. Fractions containing the DBD-A/B protein were pooled and dialyzed overnight in Buffer B (1 mM HEPES, pH 7.2, 10 mM dithiothreitol (DTT), 50 mM NaCl and 1 μg/mL PMSF, pepstatin and leupeptin) and aliquots stored at −80° C.
RPA and DBD-A/B Binding. EMSAs were performed as previously described (22) using a 30-base purine rich ssDNA substrate (3Pc3). […] Gels were dried and quantified via phosphorimager analysis and ImageQuant software (Molecular Dynamics).

[3] = test system: A549 cell lines; experiment: Combination with ionizing radiation, A549; assay type: cell-based; conditions: A549, data not shown
[4] = target: T3, EcSSB (Escherichia coli, UniProt P0AGE0); experiment: E. coli SSB DNA-binding EMSA; conditions: 0-200 μM, pre-incubated with protein
T3 construct: purchased Enzymatics, Beverly, Mass
T3 sequence (P0AGE0 2-178): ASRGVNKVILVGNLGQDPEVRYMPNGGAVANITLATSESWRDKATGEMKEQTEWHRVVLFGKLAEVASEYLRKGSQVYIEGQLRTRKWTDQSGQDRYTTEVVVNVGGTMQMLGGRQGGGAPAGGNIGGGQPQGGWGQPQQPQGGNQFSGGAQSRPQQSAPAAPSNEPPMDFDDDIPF
Procedure: In order to study the specificity of the CheSS19, and MCI13E/F compounds, their effects on two ssDNA binding proteins which use OB-folds for recognition and binding of ssDNA, E. coli SSB (6) and the Schizosaccharomyces pombe Pot1(DBD) domain (11) were studied. The EcSSB protein is a non-sequence-specific ssDNA binding protein, whereas the SpPot1(DBD) protein is a telomere-specific, ssDNA binding protein. In these experiments, protein was pre-incubated with the SMIs, as was done for the RPA experiments, prior to addition of radiolabeled ssDNA to the reactions.
Referring now to FIG. 6B. CheSS19 titration in EcSSB DNA-binding reactions. CheSS19 (0, 25, 50, 100, and 200 μM) was pre-incubated with EcSSB and binding reactions were carried out. Referring now to FIG. 6C. Titration of MCI13E and MCI13F in EcSSB DNA-binding reactions. Concentrations of MCI13E/F used were: 0, 25, 50, 100, and 200 μM. In all panels, the ‘Free’ ssDNA is indicated with an arrow and the ‘Bound’ ssDNA is indicated by brackets. All reactions were performed in the same order and manner as the RPA binding reactions. EcSSB binding was unaffected by CheSS19 and the MCI13E and MCI13F compounds […].
EMSAs were performed similarly to those for the RPA constructs, with the following exceptions. Reactions contained 25 nM of 5′-[^32P]-labeled 3Pc3 ssDNA and 3.3 nM (assuming homotetramer formation) SSB protein (Enzymatics, Beverly, Mass.). Reactions (20 μL) were carried out in 20 mM HEPES, pH 7.5, 1 mM DTT, 0.01% NP-40, 100 mM NaCl, and resolved by 6% native polyacrylamide gel electrophoresis at 25 mA for 2 hours. Gels were dried and quantified via phosphorimager analysis and ImageQuant software (Molecular Dynamics).

[5] = test system: H1299 cells; experiment: CCK-8 cell viability assay, H1299; assay type: cell-based
Procedure: Referring now to FIG. 13A. Cell Viability and Apoptosis of Ovarian and p53 null Lung Cancer Cell Lines. A) Ovarian cancer cell line A2780 and the p53 null lung cancer cell line, H1299, were treated with log dosing of MCI13E and viability analyzed via CCK-8 metabolic assay as described in Methods. Data is presented as cell survival which was determined as a percent of the untreated control cells and represents the average and standard deviation of triplicate experiments Referring now to FIG. 13B.
Ovarian cancer cell line, A2780, cells are difficult to use for crystal violet analysis due to their enhanced sensitivity to treatment. Therefore, the cell counting kit-8 (CCK) was used to determine the viability of A2780 cells in addition to the p53 null lung cancer cell line H1299, following a 24 hour treatment with log dosing of SMI. Cells were plated (1×10^5) in 24-well dishes and treated with inhibitor after 24 hours. After treatment media was aspirated and 1 ml of DMEM was added in addition to 100 μL of CCK-8 solution. Absorbance at 450 nm was measured over 4 hours in a SpectraMax M5 plate reader and values are presented as the percent untreated control at the two hour time point for three separate plate replicates each containing three assays per plate.

[6] = H1299, 24 hours after exposing the cells, read-out: IC50, cell viability
[7] = H1299, read-out: IC50, cell viability (text to Table 3)

SMILES | Inhibition of full-length RPA DNA binding [1] | Inhibition of DBD-A/B DNA binding [2] | Cell death in combination with ionizing radiation [3] | Effect on EcSSB ssDNA binding [4] | IC50 ([5]; H1299 (p53 null), 24 hours of treatment, CCK-8, read-out: IC50, cell viability) [nM] | IC50 [5, 6] [nM] | IC50 [5, 7] [nM]
CC1(C)C2CCC1(C)C(OC(=O)CBr)C2 (racemic) [MCI13E, (+/−)-Isobornyl bromoacetate] | inhibits RPA-DNA binding in vitro; also recorded: inhibition of the full-length heterotrimer RPA | no inhibitory activity; also recorded: completely ineffective | at best, an additive increase in cell death | unaffected; also recorded: no significant inhibition | ~4000 | 500 | ~500
CC1(C)C2CCC1(C)C(OC(=O)CI)C2 (racemic) [MCI13F, (+/−)-Isobornyl iodoacetate] | slightly more effective | no inhibitory activity; also recorded: completely ineffective | at best, an additive increase in cell death | unaffected; also recorded: no significant inhibition |  | 500 | ~500
